Measurements reported in ChEMBL document CHEMBL1629595, “Truncated tni module adjacent to the complex integron of salmonella genomic island 1 in Salmonella enterica serovar Virchow” (2009).
Values after ≈ are worked out from the molar mass of the structure shown.

What was measured:
Salmonella typhimurium = experiment: Antibacterial activity against multidrug-resistant Salmonella enterica subsp. enterica serovar Typhimurium BN9181 expressing floR; assay type: functional
[1] = Antibacterial activity against multidrug-resistant Salmonella enterica serovar Virchow B100 expressing floR2; assay type: functional, Salmonella enterica subsp. enterica serovar Virchow
[2] = Antibacterial activity against multidrug-resistant Salmonella enterica serovar Virchow B98 expressing floR2; assay type: functional, Salmonella enterica subsp. enterica serovar Virchow
[3] = Antibacterial activity against multidrug-resistant Salmonella enterica serovar Virchow B94 expressing floR2; assay type: functional, Salmonella enterica subsp. enterica serovar Virchow

Q: What does the source list for CS(=O)(=O)c1ccc([C@@H](O)[C@@H](CF)NC(=O)C(Cl)Cl)cc1 [FLORFENICOL]?
A: MIC (Salmonella typhimurium): 64 mg/L (≈ 179 µM); MIC [1]: 32 mg/L (≈ 89.3 µM); MIC [2]: 32 mg/L (≈ 89.3 µM); MIC [3]: 32 mg/L (≈ 89.3 µM)

Q: For O=C(N[C@H](CO)[C@H](O)c1ccc([N+](=O)[O-])cc1)C(Cl)Cl [CHLORAMPHENICOL], which MIC (Salmonella typhimurium) is on record?
A: Its MIC is 256 mg/L (≈ 792 µM).

Q: What about the MIC [1] of the same molecule?
A: Its MIC is > 256 mg/L.

Q: What about the MIC [2] of the same molecule?
A: The MIC was > 256 mg/L.

Q: And the MIC [3]?
A: The MIC was > 256 mg/L.
